Measured values: US20110053907A1, “SUBSTITUTED PYRIMIDINES AND TRIAZINES AND THEIR USE IN CANCER THERAPY” (Auckland UniServices Limited, priority 2008, published 2011)
“Also recorded” adds a separate entry of the source.

Key:
[1] = test system: PI 3-kinase in 3T3L1 adipocytes; assay: Cellular irreversibility assay, insulin-stimulated phosphoSer473 PKB Western blot with and without washout; type: cell-based
Procedure: Fully differentiated 3T3L1 adipocytes were starved overnight without serum. The following day, cells were incubated for 60 min with wortmannin (100 nM) as the positive control, LY 294002 (5 μM) as the negative control, the test compounds (1 μM), or DMSO.
To test for irreversibility, cells were then either: 1) rinsed 3 times with warm medium and incubated without an inhibitor for 30 min; or 2) maintained in the same medium containing an inhibitor.
Cells were subsequently stimulated or not with insulin (100 nM, 10 min). Finally, cells were washed twice with ice-cold Phosphate Buffer Saline (PBS) (140 mM NaCl, 3 mM KCl, 6 mM Na2HPO4, 1 mM KH2PO4 (pH 7.4)) and solubilized with a lysis buffer (20 mM Tris-HCl, 138 mM NaCl, 2.7 mM KCl, 1 mM MgCl2, 1 mM CaCl2, 5% (v/v) glycerol, 1% (v/v) Nonidet P-40 (NP40), 5 mM EDTA, 20 μM leupeptin, 18 μM pepstatin, 1 mM AEBSF, 4 μg/mL aprotinin, 2 mM Na3VO4, 20 mM NaF, 1 mM DTT (pH7.4)). Lysates were kept on ice for 20 min and insoluble material was removed by centrifugation at 14,000 g for 10 min. Protein concentration was determined by colorimetric assay (BCA, Pierce).
Proteins were separated by SDS-PAGE and transferred to polyvinylidene difluoride (PVDF) membranes (Pall Corporation, USA). The membranes were incubated for 1 hr in a blocking buffer (20 mM Tris (pH 7.4), 137 mM NaCl, 0.5% (v/v) Tween 20) containing 3% (w/v) BSA (ICP Bio, Auckland, New Zealand) or non-fat milk, and then incubated overnight in the blocking buffer containing specific antibodies (phosphoSer473 PKB and total PKB) Immunoreactive proteins were detected using horseradish peroxidase-linked secondary antibodies (Dako) and enhanced chemiluminescence (ECL) according to the manufacturer's instructions (GE Healthcare, Inc.). Signals were analyzed and quantified using Fuji LAS-3000 phosphorimager and Fuji Image Gauge software.
Overnight-starved 3T3L1 adipocytes cells were incubated for 60 min with compound of Example 4 at 1 μM (lanes 7-12). […]

NZOV9 = assay: Cellular growth inhibition, 3H-thymidine incorporation; type: cell-based, human; settings: five days, 3H-thymidine over last 6 hrs; fifth data column
Procedure: The compounds were evaluated against two early passage human cell lines NZB5 and NZOV9 (Marshall et al., Oncol. Res. 2004, 14, 297). The cells were grown in ITS medium (α-modified minimal essential medium supplemented insulin, transferrin, selenite, and 5% fetal bovine serum) and grown on 96-well tissue culture plates under an atmosphere of 5% O2, 5% CO2, and 90% N2. Individual wells contained 500-1,000 cells (depending on the growth rate) in a volume of 150 μL. Compounds were added at 10-fold concentration steps to a maximum of 20 μM and plates were incubated for five days, with ^3H-thymidine being added over the last 6 hrs. Cells were harvested and incorporated radioactivity measured. Duplicate samples were analyzed for each compound dose with multiple control samples. Data were fitted by a least-squares method to an exponential of the form y=y0+ae^−bx, where y is the radioactivity (corrected for background and normalized to 100% of the control), x is the […], and y0, a, and b are variables, and the IC50 value defined as the compound concentration reducing ^3H-thymidine levels by 50%.

human tumour xenografts = settings: mouse, in vivo; cited from earlier work

In the case of `COc1cccc2c1nc(C(F)F)n2-c1nc(N2CCOCC2)nc(N2CCN(C(=O)CCl)CC2)n1` [Example 4, 1-[4-[4-(Chloroacetyl)-1-piperazinyl]-6-(4-morpholinyl)-1,3,5-triazin-2-yl]-2-(difluoromethyl)-4-methoxy-1H-benzimidazole], the “insulin-stimulated phosphorylation of PKB (phosphoSer473)” value ([1]; 1 μM, 60 min, compound left on cells, insulin 100 nM, 10 min (lanes 7-9)) is reported as “attenuated”, the “insulin-stimulated phosphorylation of PKB (phosphoSer473) after washout” value ([1]; 1 μM, 60 min, rinsed 3 times, 30 min without compound, insulin 100 nM, 10 min (lanes 10-12)) is reported as “attenuated” and the “irreversible binding to PI 3-kinase” value ([1]; 3T3L1 adipocytes, FIG. 1) is reported as “irreversible binding; also recorded: irreversibly bound PI 3-kinase in the cells”. It also gave a melting point of 241 to 243 °C.
With `COc1cccc2c1nc(C(F)F)n2-c1nc(N2CCOCC2)nc(N(C)[C@@H]2CCCN(C(=O)CCl)C2)n1` [Example 39, N-[(3R)-1-(chloroacetyl)piperidinyl]-4-[2-(difluoromethyl)-4-methoxy-1H-benzimidazol-1-yl]-N-methyl-6-(4-morpholinyl)-1,3,5-triazin-2-amine] the IC50 (NZOV9) was < 0.1 µM.
For `O=c1cc(N2CCOCC2)oc2c(-c3ccccc3)cccc12` [LY294002], the tolerability (human tumour xenografts) is listed as “well-tolerated”.
In the case of “N-[(3S)-1-(chloroacetyl)piperidinyl]-4-[2-(difluoromethyl)-4-methoxy-1H-benzimidazol-1-yl]-N-methyl-6-(4-morpholinyl)-1,3,5-triazin-2-amine [Example 40]”, the IC50 (NZOV9) is reported as < 0.1 µM.
